# Reference: patent publication US11712439B2, “Methods and materials for identifying and treating bet inhibitor-resistant cancers” (Mayo Foundation for Medical Education and Research, priority 2017, dated 2023)
# Assays:
# Assay type in all cases: cell-based, human
# 22Rv1 cells = experiment: Cell proliferation assay (MTS) and trypan blue assay, 22Rv1 cells; conditions: JQ1 0.25 μM every other day
# Description: CellTiter 96® AQueous One Solution Cell Proliferation Assay (MTS) (Promega) was used to measure cell growth according to the manufacturer's instructions. Briefly, cells were plated in 96-well plates at a density of 2,000 cells per well. At the indicated times, 20 μL of Cell Titer 96R Aqueous One Solution Reagent was added to medium. After incubating for 1 hour at 37° C. in the cell incubator, cell growth was measured in a microplate reader at 490 nm.
# Trypan blue assay was performed to measure cell growth according to the manufacturer's instructions. Briefly, cells were plated in 6-well plates at a density of about 5×10^4 to about 1×10^5 cells per well. At the indicated time points, cells were trypsinized and suspended in 1 mL 1×PBS. 100 μL cells and 100 μL trypan blue solution (Sigma-Aldrich) were mixed, and the number of viable cells was measured using the Bio-Rad automated cell counter.
# MYC = experiment: Western blot of MYC in C4-2 cells; conditions: control and SPOP-F133V C4-2 cells, JQ1 1 μM 24 hours
# Description: (§1) Cell lysates or immunoprecipitates were subjected to SDS-PAGE, and proteins were transferred to nitrocellulose membranes (GE Healthcare Sciences). The membranes were blocked in Tris-buffered saline (TBS, pH 7.4) containing 5% non-fat milk and 0.1% Tween-20, washed twice in TBS containing 0.1% Tween-20, and incubated with primary antibody overnight at 4° C., followed by secondary antibody for 1 hour at room temperature. The proteins of interest were visualized using ECL chemiluminescence system (Santa Cruz Biotechnology). Densitometry analysis of protein bands was analyzed on the Gel-Pro Analyzer software.
# AR = experiment: Western blot of AR, RT-qPCR of AR target genes and AR ChIP-qPCR in C4-2 cells; conditions: control and SPOP-F133V C4-2 cells, JQ1 1 μM 24 hours
# Description: as §1
# Total RNA was isolated from transiently transfected cells using the Trizol reagent (Thermo Fisher Scientific), and cDNA was reverse-transcribed using the Superscript RT kit (TOYOBO, Japan) according to the manufacturer's instructions. PCR amplification was performed using the SYBR Green PCR master mix Kit (TOYOBO, Japan). All quantization was normalized to the level of endogenous control GAPDH. […]
# AKT-mTORC1 pathway = experiment: Western blot of AKT and S6K phosphorylation in C4-2 cells; conditions: cells expressing mutant SPOP (SPOP-F133V)
# Description: as §1
# BRD2/3/4 = experiment: In vivo ubiquitination assay and Western blot of SPOP-induced BRD2/3/4 degradation in 293T cells; conditions: JQ1 1 μM for 24 hours
smiles,measurement,setting,value
Cc1sc2c(c1C)C(c1ccc(Cl)cc1)=N[C@@H](CC(=O)OC(C)(C)C)c1nnc(C)n1-2 [JQ1],Cell growth inhibition in SPOP-F133V-expressing cells,22Rv1 cells; SPOP-F133V-expressing 22Rv1 cells,largely impeded
same,Cell growth,22Rv1 cells; empty vector (EV)-expressing 22Rv1 cells,inhibited growth
same,MYC protein expression,MYC,markedly decreased
same,AR protein level,AR,largely decreased
same,AR transcriptional activity,AR,largely decreased
same,JQ1-induced inhibition of phosphorylation of AKT-mTORC1 pathway proteins,AKT-mTORC1 pathway,largely impedes
same,SPOP-induced BRD2/3/4 ubiquitination and degradation,BRD2/3/4,partially blocked
